Laboratory results published in ChEMBL document CHEMBL1142152, “Inhibition of anthrax protective antigen outside and inside the cell” (Antimicrob Agents Chemother, 2007).
Activity calls are given as the source filed them. The rule behind the calls is not given here.

Assays:
Type in all cases: functional, cell-based
[1] = species on record: Mus musculus; assay: Cell viability in mouse RAW264.7 cells by LeTx protection assay
[2] = test system: CHO; assay: Inhibition of LFn-Lip uptake in CHO cells expressing TEM8 receptor at 100 uM after 1 hrs; details: Cricetulus griseus
[3] = test system: CHO; assay: Blockade of PA-induced toxicity in CHO cells expressing TEM8 assessed as cell viability at 5 uM after 48 hrs; details: Cricetulus griseus
[4] = test system: CHO; assay: Inhibition of PA-induced apoptosis in CHO cells expressing TEM8 receptor cells at 5 uM after 24 hrs; details: Cricetulus griseus
[5] = test system: CHO; assay: Inhibition of LFn-A1 uptake in CHO cells expressing TEM8 receptor at 100 uM; details: Cricetulus griseus
[6] = test system: KDR; assay: Protection of SLT-VEGF induced toxicity in 293/KDR cells; details: Homo sapiens

For `NCCCSC[C@H]1O[C@@H]2O[C@H]3[C@H](O)[C@@H](O[C@H]4[C@H](O)[C@@H](O)[C@@H](O[C@H]5[C@H](O)[C@@H](O)[C@@H](O[C@H]6[C@H](O)[C@@H](O)[C@@H](O[C@H]7[C@H](O)[C@@H](O)[C@@H](O[C@H]8[C@H](O)[C@@H](O)[C@@H](OC1[C@H](O)[C@H]2O)O[C@@H]8CSCCCN)O[C@@H]7CSCCCN)O[C@@H]6CSCCCN)O[C@@H]5CSCCCN)O[C@@H]4CSCCCN)[C@@H](O)O[C@@H]3CSCCCN`, which IC50 [1] is on record?
The IC50 was 7 µM.

And the Activity [2]?
Its Activity is “inactive”.

What about the Activity [3] of the same molecule?
Its Activity is “Active”.

What about the Activity [4] of the same molecule?
The Activity was “Active”.

What about the Activity [5] of the same molecule?
The Activity was “Active”.

And the Activity [6]?
The Activity was “inactive”.
